Experimental findings from ChEMBL document CHEMBL1154324, “Activity of mangosteen xanthones and teleocidin a-2 in death receptor expression enhancement and tumor necrosis factor related apoptosis-inducing ligand assays” (J Nat Prod, 2010) are described below.

The target in this assay is Tumor necrosis factor receptor superfamily member 10B (Homo sapiens) (UniProt O14763). Nature of the assay: Induction of DR5 promoter activity in SacI gene expressing human DLD1 cells at 10 to 30 uM after 24 hrs by luciferase reporter gene assay relative to control. The format is cell-based. The following applies: DLD-1. Background: In a reporter assay the amount or activity of a reporter protein is the signal.
Tumor necrosis factor receptor superfamily member 10B (Homo sapiens), sequence (O14763 whole entry): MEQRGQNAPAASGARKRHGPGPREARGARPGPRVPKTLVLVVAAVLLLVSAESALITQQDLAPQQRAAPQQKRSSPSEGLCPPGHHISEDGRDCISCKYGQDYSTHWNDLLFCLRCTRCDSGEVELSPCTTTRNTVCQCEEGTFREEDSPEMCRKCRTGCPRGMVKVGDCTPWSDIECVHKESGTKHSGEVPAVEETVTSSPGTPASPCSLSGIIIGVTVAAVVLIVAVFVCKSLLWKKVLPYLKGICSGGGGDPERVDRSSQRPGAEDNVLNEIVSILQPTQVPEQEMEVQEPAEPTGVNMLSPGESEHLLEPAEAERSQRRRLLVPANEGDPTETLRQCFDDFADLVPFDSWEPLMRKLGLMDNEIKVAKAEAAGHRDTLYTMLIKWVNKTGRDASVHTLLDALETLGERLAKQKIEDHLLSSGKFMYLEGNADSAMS

As to `COc1c(O)cc2oc3cc(O)c(CC=C(C)C)c(O)c3c(=O)c2c1CC=C(C)C`, the fold change (FC) came to 3.8.

Compound `CC(C)=CCc1c(O)c(CC=C(C)C)c2oc3c(O)ccc(O)c3c(=O)c2c1O` registered a fold change (FC) of 3.1.

As for `COc1c(O)cc2oc3cc4c(c(O)c3c(=O)c2c1CC=C(C)C)C=CC(C)(C)O4`, the fold change (FC) came out at 4.
